Reference: patent US20230416258A1, “BENZ[…], AND PREPARATION METHOD THEREFOR AND USE THEREOF” (CHINA PHARMACEUTICAL UNIVERSITY, priority 2020, published 2023)

system: KM mice; test: Test for drug-induced disappearance of righting reflex in mice; assay type: in vivo; settings: 30 mg/kg, single rapid bolus via tail vein
Description: In anesthetic drug experiments, latency generally refers to the time from the start of administration to the loss of consciousness of the subject. The shorter latency is preferred, indicating a rapid onset of action after administration. The duration of anesthesia generally refers to the duration of time from the loss of consciousness to the restoration of consciousness of the subject. The duration of the drug will vary from animal model to animal species. Too long anesthesia may produce adverse cardiovascular and respiratory responses, such as adverse neurological effects to the subject, including sleepiness and dizziness; meanwhile, too short duration of anesthesia may affect the anesthesia effect, causing problems such as increase of anesthesia dosage during the operation.
KM mice (female, 18-25 g) were randomly grouped and subjected to a single administration by rapid bolus via the tail vein. The latency and duration of disappearance of righting reflex in the mice were recorded.

| SMILES | Duration [min] | Latency [min] |
| --- | --- | --- |
| COC(=O)CC[C@@H]1N=C(c2ccccc2Cl)c2cc(Cl)ccc2-n2c(S)nnc21 [Compound 2, methyl (S)-3-(8-chloro-6-(2-chlorophenyl)-1-mercapto-4H-benzo[f][1,2,4]triazolo[4,3-a][1,4]diazepin-4-yl)propionate] | 5.27 | 0.58 |
| COC(=O)CC[C@@H]1N=C(c2ccccn2)c2cc(Br)ccc2-n2c(S)nnc21 [Compound 3, methyl (S)-3-(8-bromo-6-(pyridin-2-yl)-1-mercapto-4H-benzo[f][1,2,4]triazolo[4,3-a][1,4]diazepin-4-yl)propionate] | 7.37 | 0.48 |
| COC(=O)CC[C@@H]1N=C(c2ccccc2)c2ccccc2-n2c(S)nnc21 [Compound 5, methyl (S)-3-(6-phenyl-1-mercapto-4H-benzo[f][1,2,4]triazolo[4,3-a][1,4]diazepin-4-yl)propionate] | 13.27 | 1.11 |
| COC(=O)CC[C@@H]1N=C(c2ccc(F)cc2)c2ccccc2-n2c(S)nnc21 [Compound 6, methyl (S)-3-(6-(4-fluorophenyl)-1-mercapto-4H-benzo[f][1,2,4]triazolo[4,3-a][1,4]diazepin-4-yl)propionate] | 9.93 | 0.59 |
| COC(=O)CC[C@@H]1N=C(c2ccccc2)c2cc(Cl)ccc2-n2c(S)nnc21 [Compound 7, methyl (S)-3-(8-chloro-6-phenyl-1-mercapto-4H-benzo[f][1,2,4]triazolo[4,3-a][1,4]diazepin-4-yl)propionate] | 12.26 | 1.14 |
| COC(=O)CC[C@@H]1N=C(c2ccccc2F)c2cc(Cl)ccc2-n2c(SC)nnc21 [Compound 8, methyl (S)-3-(8-chloro-6-(2-fluorophenyl)-1-(methylthio)-4H-benzo[f][1,2,4]triazolo[4,3-a][1,4]diazepin-4-yl)propionate] | 8.35 | 0.36 |
| COC(=O)CC[C@@H]1N=C(c2ccccc2F)c2cc(Br)ccc2-n2c(SC)nnc21 [Compound 9, methyl (S)-3-(8-bromo-6-(2-fluorophenyl)-1-(methylthio)-4H-benzo[f][1,2,4]triazolo[4,3-a][1,4]diazepin-4-yl)propionate] | 12.12 | 0.84 |
| CCSc1nnc2n1-c1ccc(Cl)cc1C(c1ccccc1F)=N[C@H]2CCC(=O)OC [Compound 11, methyl (S)-3-(8-chloro-6-(2-fluorophenyl)-1-(ethylthio)-4H-benzo[f][1,2,4]triazolo[4,3-a][1,4]diazepin-4-yl)propionate] | 6.37 | 0.77 |
| CCSc1nnc2n1-c1ccc(Br)cc1C(c1ccccc1F)=N[C@H]2CCC(=O)OC [Compound 12, methyl (S)-3-(8-bromo-6-(2-fluorophenyl)-1-(ethylthio)-4H-benzo[f][1,2,4]triazolo[4,3-a][1,4]diazepin-4-yl)propionate] | 17.21 | 0.74 |
| CCCSc1nnc2n1-c1ccc(Cl)cc1C(c1ccccc1F)=N[C@H]2CCC(=O)OC [Compound 14, methyl (S)-3-(8-chloro-6-(2-fluorophenyl)-1-(propylthio)-4H-benzo[f][1,2,4]triazolo[4,3-a][1,4]diazepin-4-yl)propionate] | 9.12 | 0.78 |
| CCCSc1nnc2n1-c1ccc(Br)cc1C(c1ccccc1F)=N[C@H]2CCC(=O)OC [Compound 15, methyl (S)-3-(8-bromo-6-(2-fluorophenyl)-1-(propylthio)-4H-benzo[f][1,2,4]triazolo[4,3-a][1,4]diazepin-4-yl)propionate] | 8.47 | 1.03 |
| CCCSc1nnc2n1-c1ccc([N+](=O)[O-])cc1C(c1ccccc1F)=N[C@H]2CCC(=O)OC [Compound 16, methyl (S)-3-(8-nitro-6-(2-fluorophenyl)-1-(propylthio)-4H-benzo[f][1,2,4]triazolo[4,3-a][1,4]diazepin-4-yl)propionate] | 6.25 | 0.79 |
| COC(=O)CC[C@@H]1N=C(c2ccccc2F)c2cc(Cl)ccc2-n2c(SCCO)nnc21 [Compound 17, methyl (S)-3-(8-chloro-6-(2-fluorophenyl)-1-((2-hydroxyethyl)thio)-4H-benzo[f][1,2,4]triazolo[4,3-a][1,4]diazepin-4-yl)propionate] | 15.35 | 1.09 |
| COC(=O)CC[C@@H]1N=C(c2ccccc2F)c2cc(Br)ccc2-n2c(SCCO)nnc21 [Compound 18, methyl (S)-3-(8-bromo-6-(2-fluorophenyl)-1-((2-hydroxyethyl)thio)-4H-benzo[f][1,2,4]triazolo[4,3-a][1,4]diazepin-4-yl)propionate] | 4.74 | 0.31 |
| COC(=O)CC[C@@H]1N=C(c2ccccc2F)c2cc([N+](=O)[O-])ccc2-n2c(SCCO)nnc21 [Compound 19, methyl (S)-3-(8-nitro-6-(2-fluorophenyl)-1-((2-hydroxyethyl)thio)-4H-benzo[f][1,2,4]triazolo[4,3-a][1,4]diazepin-4-yl)propionate] | 16.22 | 0.89 |
| COC(=O)CC[C@@H]1N=C(c2ccccc2F)c2cc(Cl)ccc2-n2c(SCCN)nnc21 [Compound 20, methyl (S)-3-(8-chloro-6-(2-fluorophenyl)-1-((2-aminoethyl)thio)-4H-benzo[f][1,2,4]triazolo[4,3-a][1,4]diazepin-4-yl)propionate] | 9.82 | 0.27 |
| COC(=O)CC[C@@H]1N=C(c2ccccc2F)c2cc(Br)ccc2-n2c(SCCN)nnc21 [Compound 21, methyl (S)-3-(8-bromo-6-(2-fluorophenyl)-1-((2-aminoethyl)thio)-4H-benzo[f][1,2,4]triazolo[4,3-a][1,4]diazepin-4-yl)propionate] | 2.83 | 0.35 |
| COC(=O)CC[C@@H]1N=C(c2ccccc2F)c2cc([N+](=O)[O-])ccc2-n2c(SCCN)nnc21 [Compound 22, methyl (S)-3-(8-nitro-6-(2-fluorophenyl)-1-((2-aminoethyl)thio)-4H-benzo[f][1,2,4]triazolo[4,3-a][1,4]diazepin-4-yl)propionate] | 6.53 | 0.58 |
| CCSc1nnc2n1-c1ccc(Br)cc1C(c1ccccc1Cl)=N[C@H]2CCC(=O)OC [Compound 27, methyl (S)-3-(8-bromo-6-(2-chlorophenyl)-1-(ethylthio)-4H-benzo[f][1,2,4]triazolo[4,3-a][1,4]diazepin-4-yl)propionate] | 5.93 | 0.35 |
| CCCSc1nnc2n1-c1ccc([N+](=O)[O-])cc1C(c1ccccc1Cl)=N[C@H]2CCC(=O)OC [Compound 31, methyl (S)-3-(8-nitro-6-(2-chlorophenyl)-1-(propylthio)-4H-benzo[f][1,2,4]triazolo[4,3-a][1,4]diazepin-4-yl)propionate] | 8.98 | 2.85 |
| COC(=O)CC[C@@H]1N=C(c2ccccc2Cl)c2cc(Cl)ccc2-n2c(SC(C)=O)nnc21 [Compound 38, methyl (S)-3-(8-chloro-6-(2-chlorophenyl)-1-(acetylthio)-4H-benzo[f][1,2,4]triazolo[4,3-a][1,4]diazepin-4-yl)propionate] | 12.94 | 0.67 |
| COC(=O)CC[C@@H]1N=C(c2ccccc2Cl)c2cc([N+](=O)[O-])ccc2-n2c(SC(C)=O)nnc21 [Compound 40, methyl (S)-3-(8-nitro-6-(2-chlorophenyl)-1-(acetylthio)-4H-benzo[f][1,2,4]triazolo[4,3-a][1,4]diazepin-4-yl)propionate] | 8.94 | 0.37 |
| CCOC(=O)CC[C@@H]1N=C(c2ccccc2Cl)c2cc(Cl)ccc2-n2c(SC)nnc21 [Compound 42, ethyl (S)-3-(8-chloro-6-(2-chlorophenyl)-1-(methylthio)-4H-benzo[f][1,2,4]triazolo[4,3-a][1,4]diazepin-4-yl)propionate] | 4.68 | 0.65 |
| CCOC(=O)CC[C@@H]1N=C(c2ccccc2Cl)c2cc(Br)ccc2-n2c(SC)nnc21 [Compound 43, ethyl (S)-3-(8-bromo-6-(2-chlorophenyl)-1-(methylthio)-4H-benzo[f][1,2,4]triazolo[4,3-a][1,4]diazepin-4-yl)propionate] | 12.38 | 0.38 |

same assay, conditions: 60 mg/kg, single rapid bolus via tail vein

| SMILES | Duration [min] | Latency [min] |
| --- | --- | --- |
| CCSc1nnc2n1-c1ccc(Cl)cc1C(c1ccccc1F)=N[C@H]2CCC(=O)OC [Compound 11, methyl (S)-3-(8-chloro-6-(2-fluorophenyl)-1-(ethylthio)-4H-benzo[f][1,2,4]triazolo[4,3-a][1,4]diazepin-4-yl)propionate] | 7.98 | 0.83 |
| CCCSc1nnc2n1-c1ccc([N+](=O)[O-])cc1C(c1ccccc1F)=N[C@H]2CCC(=O)OC [Compound 16, methyl (S)-3-(8-nitro-6-(2-fluorophenyl)-1-(propylthio)-4H-benzo[f][1,2,4]triazolo[4,3-a][1,4]diazepin-4-yl)propionate] | 6.6 | 0.28 |
| COC(=O)CC[C@@H]1N=C(c2ccccc2F)c2cc(Br)ccc2-n2c(SCCO)nnc21 [Compound 18, methyl (S)-3-(8-bromo-6-(2-fluorophenyl)-1-((2-hydroxyethyl)thio)-4H-benzo[f][1,2,4]triazolo[4,3-a][1,4]diazepin-4-yl)propionate] | 9.16 | 0.33 |
| COC(=O)CC[C@@H]1N=C(c2ccccc2F)c2cc(Br)ccc2-n2c(SCCN)nnc21 [Compound 21, methyl (S)-3-(8-bromo-6-(2-fluorophenyl)-1-((2-aminoethyl)thio)-4H-benzo[f][1,2,4]triazolo[4,3-a][1,4]diazepin-4-yl)propionate] | 6.4 | 0.2 |
| CCSc1nnc2n1-c1ccc([N+](=O)[O-])cc1C(c1ccccc1Cl)=N[C@H]2CCC(=O)OC [Compound 28, methyl (S)-3-(8-nitro-6-(2-chlorophenyl)-1-(ethylthio)-4H-benzo[f][1,2,4]triazolo[4,3-a][1,4]diazepin-4-yl)propionate] | 4.24 | 0.46 |
| CCOC(=O)CC[C@@H]1N=C(c2ccccc2Cl)c2cc(Cl)ccc2-n2c(S)nnc21 [Compound 41, ethyl (S)-3-(8-chloro-6-(2-chlorophenyl)-1-mercapto-4H-benzo[f][1,2,4]triazolo[4,3-a][1,4]diazepin-4-yl)propionate] | 8.59 | 0.40 |
| CCOC(=O)CC[C@@H]1N=C(c2ccccc2Cl)c2cc(Br)ccc2-n2c(SC)nnc21 [Compound 43, ethyl (S)-3-(8-bromo-6-(2-chlorophenyl)-1-(methylthio)-4H-benzo[f][1,2,4]triazolo[4,3-a][1,4]diazepin-4-yl)propionate] | 7.25 | 0.84 |
